# Patent publication US20250163104A1, “MACROCYCLIC IMMUNOMODULATORS” (priority 2021, published 2025)
# Where a SMILES comes first, the peptide text is derived from it. Bridges are numbered along the chain shown (N, C = ends). [ ]: non-standard residue; d: D form. The star is where a group is joined. Phe(4-COOH) = N[C@@H](Cc1ccc(C(=O)O)cc1)C(=O)O; Bip = N[C@@H](Cc1ccc(-c2ccccc2)cc1)C(=O)O; Phe(3-Me) = Cc1cccc(C[C@H](N)C(=O)O)c1; aIle = CC[C@@H](C)[C@H](N)C(=O)O; 4Pal = N[C@@H](Cc1ccncc1)C(=O)O; Cha = N[C@@H](CC1CCCCC1)C(=O)O; Cit = NC(=O)NCCC[C@H](N)C(=O)O; dCha = N[C@H](CC1CCCCC1)C(=O)O; Carboxymethyl = O=C(O)C*; Orn = NCCC[C@H](N)C(=O)O; Dab = NCC[C@H](N)C(=O)O; Dap = NC[C@H](N)C(=O)O
# Molecular target: T1, human PD-1 / PD-L1-Ig binding on Jurkat cell line over-expressing human PD-1 (Jurkat-PD-1) (Homo sapiens, UniProt Q15116)
# T1 construct: expressed in transfected cells; host or cells: Jurkat
# T1 sequence (Q15116 25-288): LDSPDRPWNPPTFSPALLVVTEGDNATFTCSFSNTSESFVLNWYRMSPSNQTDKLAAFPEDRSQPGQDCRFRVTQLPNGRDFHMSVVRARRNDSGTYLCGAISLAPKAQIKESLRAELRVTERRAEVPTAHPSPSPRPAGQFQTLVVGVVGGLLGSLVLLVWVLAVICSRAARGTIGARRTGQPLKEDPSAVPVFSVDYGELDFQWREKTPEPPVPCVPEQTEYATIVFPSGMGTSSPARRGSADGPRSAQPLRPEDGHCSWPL
# Experiment: Jurkat-PD-1 Cell Binding High-Content Screening Assay (CBA)
# Type: cell-based
# Settings: Jurkat-PD-1 cells, PE-labeled PD-L1-Ig 20 nM final; read-out: Jurkat HPD1_PDL1 IC50
# Summary of the method: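 PE-PD-L1-Ig 20 nM final; cells in DMEM/10% FCS; cpd pre-incubation 2 h, 37° C; ligand 1 h; PFA fix + Hoechst 33342; high-content imaging read-out.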
row,SMILES,IC50 [µM]
1,CC(C)[C@@H]1NC(=O)[C@H](Cc2c[nH]c3ccccc23)NC(=O)[C@H](CC(=O)O)NC(=O)[C@H](Cc2ccc(C(=O)O)cc2)NC(=O)[C@H](Cc2ccncc2)NC(=O)CSC[C@@H](C(=O)N[C@@H](C)C(N)=O)NC(=O)[C@H]([C@@H](C)O)NC(=O)[C@H](C(C)C)NC(=O)[C@H](CC2CCCCC2)NC(=O)[C@H](CCN)NC(=O)[C@@H](CC2CCCCC2)NC(=O)[C@H](CCCN)NC(=O)[C@H](CCCNC(N)=O)NC(=O)[C@H](Cc2ccc(-c3ccccc3)cc2)NC1=O [Compound 1640] ({CH2CO}-[4Pal][Phe(4-COOH)]DWV[Bip][Cit][Orn][dCha][Dab][Cha]VTCA-NH2; thioether N-14),0.0257
2,CC(C)[C@@H]1NC(=O)[C@H](Cc2c[nH]c3ccccc23)NC(=O)[C@H](CC(=O)O)NC(=O)[C@H](Cc2ccc(OCC(=O)O)cc2)NC(=O)[C@H](Cc2ccc(OCC(=O)O)cc2)NC(=O)CSC[C@@H](C(=O)N[C@@H](C)C(N)=O)NC(=O)[C@H]([C@@H](C)O)NC(=O)[C@H](C(C)C)NC(=O)[C@H](CC2CCCCC2)NC(=O)[C@H](CCN)NC(=O)[C@@H](CC2CCCCC2)NC(=O)[C@H](CCCN)NC(=O)[C@H](CCCNC(N)=O)NC(=O)[C@H](Cc2ccc(-c3ccccc3)cc2)NC1=O [Compound 1641] ({CH2CO}-Y(Carboxymethyl)Y(Carboxymethyl)DWV[Bip][Cit][Orn][dCha][Dab][Cha]VTCA-NH2; thioether N-14),0.0371
3,CC(C)[C@@H]1NC(=O)[C@H](Cc2c[nH]c3ccccc23)NC(=O)[C@H](CC(=O)O)NC(=O)[C@H](Cc2ccc(C(=O)O)cc2)NC(=O)[C@H](Cc2ccc(OCC(=O)O)cc2)NC(=O)CSC[C@@H](C(=O)N[C@@H](C)C(N)=O)NC(=O)[C@H]([C@@H](C)O)NC(=O)[C@H](C(C)C)NC(=O)[C@H](CC2CCCCC2)NC(=O)[C@H](CCN)NC(=O)[C@@H](CC2CCCCC2)NC(=O)[C@H](CCCN)NC(=O)[C@H](CCCNC(N)=O)NC(=O)[C@H](Cc2ccc(-c3ccccc3)cc2)NC1=O [Compound 1642] ({CH2CO}-Y(Carboxymethyl)[Phe(4-COOH)]DWV[Bip][Cit][Orn][dCha][Dab][Cha]VTCA-NH2; thioether N-14),0.0304
4,CC(C)[C@@H]1NC(=O)[C@H](Cc2c[nH]c3ccccc23)NC(=O)[C@H](CC(=O)O)NC(=O)[C@H](Cc2ccc(OCC(=O)O)cc2)NC(=O)[C@H](CN)NC(=O)CSC[C@@H](C(=O)N[C@@H](C)C(N)=O)NC(=O)[C@H]([C@@H](C)O)NC(=O)[C@H](C(C)C)NC(=O)[C@H](CC2CCCCC2)NC(=O)[C@H](CCN)NC(=O)[C@@H](CC2CCCCC2)NC(=O)[C@H](CCCN)NC(=O)[C@H](CCCNC(N)=O)NC(=O)[C@H](Cc2ccc(-c3ccccc3)cc2)NC1=O [Compound 1643] ({CH2CO}-[Dap]Y(Carboxymethyl)DWV[Bip][Cit][Orn][dCha][Dab][Cha]VTCA-NH2; thioether N-14),0.0145
5,CC(C)[C@@H]1NC(=O)[C@H](Cc2c[nH]c3ccccc23)NC(=O)[C@H](CC(=O)O)NC(=O)[C@H](Cc2ccc(OCC(=O)O)cc2)NC(=O)[C@H](Cc2ccncc2)NC(=O)CSC[C@@H](C(=O)N[C@@H](C)C(N)=O)NC(=O)[C@H]([C@@H](C)O)NC(=O)[C@H](C(C)C)NC(=O)[C@H](CC2CCCCC2)NC(=O)[C@H](CCN)NC(=O)[C@@H](CC2CCCCC2)NC(=O)[C@H](CCCN)NC(=O)[C@H](CCCNC(N)=O)NC(=O)[C@H](Cc2ccc(-c3ccccc3)cc2)NC1=O [Compound 1644] ({CH2CO}-[4Pal]Y(Carboxymethyl)DWV[Bip][Cit][Orn][dCha][Dab][Cha]VTCA-NH2; thioether N-14),0.0167
6,CC(C)[C@@H]1NC(=O)[C@H](Cc2c[nH]c3ccccc23)NC(=O)[C@H](CC(=O)O)NC(=O)[C@H](Cc2ccncc2)NC(=O)[C@H](Cc2ccc(OCC(=O)O)cc2)NC(=O)CSC[C@@H](C(=O)N[C@@H](C)C(N)=O)NC(=O)[C@H]([C@@H](C)O)NC(=O)[C@H](C(C)C)NC(=O)[C@H](CC2CCCCC2)NC(=O)[C@H](CCN)NC(=O)[C@@H](CC2CCCCC2)NC(=O)[C@H](CCCN)NC(=O)[C@H](CCCNC(N)=O)NC(=O)[C@H](Cc2ccc(-c3ccccc3)cc2)NC1=O [Compound 1645] ({CH2CO}-Y(Carboxymethyl)[4Pal]DWV[Bip][Cit][Orn][dCha][Dab][Cha]VTCA-NH2; thioether N-14),0.0203
7,CC(C)[C@@H]1NC(=O)[C@H](Cc2c[nH]c3ccccc23)NC(=O)[C@H](CC(=O)O)NC(=O)[C@H](Cc2ccncc2)NC(=O)[C@H](CN)NC(=O)CSC[C@@H](C(=O)N[C@@H](C)C(N)=O)NC(=O)[C@H]([C@@H](C)O)NC(=O)[C@H](C(C)C)NC(=O)[C@H](CC2CCCCC2)NC(=O)[C@H](CCN)NC(=O)[C@@H](CC2CCCCC2)NC(=O)[C@H](CCCN)NC(=O)[C@H](CCCNC(N)=O)NC(=O)[C@H](Cc2ccc(-c3ccccc3)cc2)NC1=O [Compound 1646] ({CH2CO}-[Dap][4Pal]DWV[Bip][Cit][Orn][dCha][Dab][Cha]VTCA-NH2; thioether N-14),0.0281
8,CC(C)[C@@H]1NC(=O)[C@H](Cc2c[nH]c3ccccc23)NC(=O)[C@H](CC(=O)O)NC(=O)[C@H](Cc2ccc(O)cc2)NC(=O)[C@H](CC(N)=O)NC(=O)CSC[C@@H](C(=O)N[C@@H](C)C(N)=O)NC(=O)[C@H]([C@@H](C)O)NC(=O)[C@H](C(C)C)NC(=O)[C@H](CC2CCCCC2)NC(=O)[C@H](CCN)NC(=O)[C@@H](CC2CCCCC2)NC(=O)[C@H](CCCN)NC(=O)[C@H](CCCNC(N)=O)NC(=O)[C@H](Cc2ccc(-c3ccccc3)cc2)NC1=O [Compound 1647] ({CH2CO}-NYDWV[Bip][Cit][Orn][dCha][Dab][Cha]VTCA-NH2; thioether N-14),0.0509
9,Cc1cccc(C[C@@H]2NC(=O)[C@H](CC(=O)O)NC(=O)[C@H](Cc3ccc(O)cc3)NC(=O)[C@H](CC(N)=O)NC(=O)CSC[C@@H](C(N)=O)NC(=O)[C@H]([C@@H](C)O)NC(=O)[C@H](C(C)C)NC(=O)[C@H](CC(C)C)NC(=O)[C@H](CCN)NC(=O)[C@@H](CC(C)C)NC(=O)[C@H](CCCN)NC(=O)[C@H](C(C)C)NC(=O)[C@H](Cc3ccc(-c4ccccc4)cc3)NC(=O)[C@H](C(C)C)NC2=O)c1 [Compound 1648] ({CH2CO}-NYD[Phe(3-Me)]V[Bip]V[Orn][dL][Dab]LVTC-NH2; thioether N-14),0.097
10,Cc1cccc(C[C@@H]2NC(=O)[C@H](CC(=O)O)NC(=O)[C@H](Cc3ccc(OCC(=O)O)cc3)NC(=O)[C@H](Cc3ccc(OCC(=O)O)cc3)NC(=O)CSC[C@@H](C(N)=O)NC(=O)[C@H](CO)NC(=O)[C@H](C(C)C)NC(=O)[C@H](CC(C)C)NC(=O)[C@H](CCN)NC(=O)[C@@H](CC(C)C)NC(=O)[C@H](CCCN)NC(=O)[C@H](C(C)C)NC(=O)[C@H](Cc3ccc(-c4ccccc4)cc3)NC(=O)[C@H](CC(C)C)NC2=O)c1 [Compound 1649] ({CH2CO}-Y(Carboxymethyl)Y(Carboxymethyl)D[Phe(3-Me)]L[Bip]V[Orn][dL][Dab]LVSC-NH2; thioether N-14),0.0345
11,Cc1cccc(C[C@@H]2NC(=O)[C@H](CC(=O)O)NC(=O)[C@H](Cc3ccc(OCC(=O)O)cc3)NC(=O)[C@H](Cc3ccc(OCC(=O)O)cc3)NC(=O)CSC[C@@H](C(=O)NCC(N)=O)NC(=O)[C@H](CO)NC(=O)[C@H](C(C)C)NC(=O)[C@H](CC3CCCCC3)NC(=O)[C@H](CCN)NC(=O)[C@@H](CC(C)C)NC(=O)[C@H](CCCN)NC(=O)[C@H](C(C)C)NC(=O)[C@H](Cc3ccc(-c4ccccc4)cc3)NC(=O)[C@H](CC(C)C)NC2=O)c1 [Compound 1650] ({CH2CO}-Y(Carboxymethyl)Y(Carboxymethyl)D[Phe(3-Me)]L[Bip]V[Orn][dL][Dab][Cha]VSCG-NH2; thioether N-14),0.0242
12,CC(C)C[C@H]1NC(=O)[C@H](CN)NC(=O)[C@H](C(C)C)NC(=O)[C@H](Cc2ccc(-c3ccccc3)cc2)NC(=O)[C@H](C(C)C)NC(=O)[C@H](Cc2c[nH]c3ccccc23)NC(=O)[C@H](CC(=O)O)NC(=O)[C@H](Cc2ccncc2)NC(=O)[C@H](CN)NC(=O)CSC[C@@H](C(=O)NCC(N)=O)NC(=O)[C@H](CO)NC(=O)[C@H](C(C)C)NC(=O)[C@H](CC2CCCCC2)NC(=O)[C@H](CC(N)=O)NC1=O [Compound 1651] ({CH2CO}-[Dap][4Pal]DWV[Bip]V[Dap][dL]N[Cha]VSCG-NH2; thioether N-14),0.0174
13,CC(C)C[C@H]1NC(=O)[C@H](CN)NC(=O)[C@H](C(C)C)NC(=O)[C@H](Cc2ccc(-c3ccccc3)cc2)NC(=O)[C@H](C(C)C)NC(=O)[C@H](Cc2c[nH]c3ccccc23)NC(=O)[C@H](CC(=O)O)NC(=O)[C@H](Cc2ccc(OCC(=O)O)cc2)NC(=O)[C@H](CN)NC(=O)CSC[C@@H](C(=O)NCC(N)=O)NC(=O)[C@H](CO)NC(=O)[C@H](C(C)C)NC(=O)[C@H](CC2CCCCC2)NC(=O)[C@H](CC(N)=O)NC1=O [Compound 1652] ({CH2CO}-[Dap]Y(Carboxymethyl)DWV[Bip]V[Dap][dL]N[Cha]VSCG-NH2; thioether N-14),0.0203
14,CC[C@@H](C)[C@@H]1NC(=O)[C@H](Cc2ccc(-c3ccccc3)cc2)NC(=O)[C@H](CC(C)C)NC(=O)[C@H](Cc2cccc(C)c2)NC(=O)[C@H](CC(=O)O)NC(=O)[C@H](Cc2ccc(OCC(=O)O)cc2)NC(=O)[C@H](Cc2ccc(OCC(=O)O)cc2)NC(=O)CSC[C@@H](C(N)=O)NC(=O)[C@H](CO)NC(=O)[C@H](C(C)C)NC(=O)[C@H](CC(C)C)NC(=O)[C@H](CCN)NC(=O)[C@@H](CC(C)C)NC(=O)[C@H](CCCN)NC1=O [Compound 1653] ({CH2CO}-Y(Carboxymethyl)Y(Carboxymethyl)D[Phe(3-Me)]L[Bip][aIle][Orn][dL][Dab]LVSC-NH2; thioether N-14),0.0335
